# Test results: ChEMBL document CHEMBL4842396, “Synthesis of 2-Prenylated Alkoxylated Benzopyrans by Horner-Wadsworth-Emmons Olefination with PPARα/γ Agonist Activity” (ACS Med Chem Lett, 2021)
# The source made the active and inactive calls. The calls are words filed in the database; no cut-off is given here.
# What was measured:
# [1] = biological target: T1, Peroxisome proliferator-activated receptor alpha (Homo sapiens) (UniProt Q07869); assay: Agonist activity at human PPARalpha at 10 uM; details: filed as agonist
# T1 sequence (whole entry): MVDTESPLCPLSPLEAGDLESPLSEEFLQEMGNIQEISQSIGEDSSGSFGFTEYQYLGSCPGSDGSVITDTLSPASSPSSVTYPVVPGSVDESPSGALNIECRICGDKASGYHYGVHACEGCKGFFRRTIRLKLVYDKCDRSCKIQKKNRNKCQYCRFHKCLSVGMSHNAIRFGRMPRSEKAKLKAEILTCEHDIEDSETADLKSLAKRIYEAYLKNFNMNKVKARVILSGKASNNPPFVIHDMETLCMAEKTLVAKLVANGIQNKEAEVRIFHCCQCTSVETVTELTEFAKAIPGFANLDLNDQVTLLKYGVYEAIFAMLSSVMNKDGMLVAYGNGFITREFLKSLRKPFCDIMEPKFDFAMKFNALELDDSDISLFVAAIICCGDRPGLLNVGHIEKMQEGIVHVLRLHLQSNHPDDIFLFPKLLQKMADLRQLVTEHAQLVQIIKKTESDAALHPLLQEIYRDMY
# [2] = biological target: T2, Peroxisome proliferator-activated receptor gamma (Homo sapiens) (UniProt P37231); assay: Agonist activity at human PPARgamma at 10 uM; details: filed as agonist
# T2 sequence (whole entry): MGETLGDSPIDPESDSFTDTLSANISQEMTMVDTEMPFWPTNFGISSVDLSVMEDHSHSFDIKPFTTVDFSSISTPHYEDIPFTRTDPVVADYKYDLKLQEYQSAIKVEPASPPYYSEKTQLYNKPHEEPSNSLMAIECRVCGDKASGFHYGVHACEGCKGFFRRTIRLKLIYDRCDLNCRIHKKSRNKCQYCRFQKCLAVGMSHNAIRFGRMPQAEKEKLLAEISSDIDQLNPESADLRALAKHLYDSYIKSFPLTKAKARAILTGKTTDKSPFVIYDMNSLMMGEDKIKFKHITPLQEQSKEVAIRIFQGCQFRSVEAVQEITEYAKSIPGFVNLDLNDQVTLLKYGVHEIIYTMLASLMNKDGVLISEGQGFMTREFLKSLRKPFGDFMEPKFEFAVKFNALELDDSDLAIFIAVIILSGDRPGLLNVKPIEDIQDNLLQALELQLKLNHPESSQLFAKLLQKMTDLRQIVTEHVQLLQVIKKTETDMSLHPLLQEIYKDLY
# [3] = organism: Homo sapiens; assay: Selectivity for agonist activity at human PPARalpha over agonist activity at human PPARgamma
SMILES,Activity [1],Activity [2],Selectivity ratio [3]
CCOC(=O)/C(=C/CC/C(C)=C/CCC1(C)CCc2cc(OCc3ccccc3)ccc2O1)OCC (configuration not stated),Active,Active,
CCOC(=O)/C(=C/CC/C(C)=C/CCC1(C)CCc2cc(OCc3ccc(F)cc3)ccc2O1)OCC (configuration not stated),Active,Active,
CCCOc1ccc2c(c1)CCC(C)(CC/C=C(\C)CC/C=C(\OCC)C(=O)OCC)O2 (configuration not stated),Active,Active,
Cc1cccc(Nc2cc(Cl)nc(SCC(=O)O)n2)c1C,Active,,

# Now from value to molecule:
Activity [1],Activity [2],Selectivity ratio [3],SMILES
Active,Active,,CCOC(=O)/C(=C/CCC1(C)CCc2cc(OCc3ccccc3)ccc2O1)OCC(F)(F)F (configuration not stated)
Active,Active,1.73,CC1(CC/C=C(\OCC(F)(F)F)C(=O)O)CCc2cc(OCc3ccccc3)ccc2O1 (configuration not stated)
Active,Active,,CCOC(=O)/C(=C/CC/C(C)=C/CCC1(C)CCc2cc(OCc3ccccc3)ccc2O1)OCC(F)(F)F (configuration not stated)
Active,Active,0.64,CCO/C(=C\CC/C(C)=C/CCC1(C)CCc2cc(OCc3ccccc3)ccc2O1)C(=O)O (configuration not stated)
